Source: patent publication US7786131B2, “Pyrimido[5,4-d]pyrimidines derivatives as irreversible inhibitors of tyrosine kinases” (Warner-Lambert Company, priority 1996, dated 2010)
Where two headings read alike, the source gives them in different places.

What was measured:
[1] = target: EGF receptor tyrosine kinase (Homo sapiens, UniProt P00533); assay: Tyrosine kinase assay, isolated EGF receptor tyrosine kinase; assay type: biochemical
[2] = target: T1, EGF receptor autophosphorylation in A431 cells (Homo sapiens, UniProt P00533); assay: Autophosphorylation assay in A431 cells; assay type: cell-based; conditions: EGF-stimulated EGFR autophosphorylation in A431 cells
T1 construct: A431 human epidermoid carcinoma cells were grown in 6-well plates; endogenous in cells; host or cells: A431 human epidermoid carcinoma cells
T1 sequence (P00533 25-1210): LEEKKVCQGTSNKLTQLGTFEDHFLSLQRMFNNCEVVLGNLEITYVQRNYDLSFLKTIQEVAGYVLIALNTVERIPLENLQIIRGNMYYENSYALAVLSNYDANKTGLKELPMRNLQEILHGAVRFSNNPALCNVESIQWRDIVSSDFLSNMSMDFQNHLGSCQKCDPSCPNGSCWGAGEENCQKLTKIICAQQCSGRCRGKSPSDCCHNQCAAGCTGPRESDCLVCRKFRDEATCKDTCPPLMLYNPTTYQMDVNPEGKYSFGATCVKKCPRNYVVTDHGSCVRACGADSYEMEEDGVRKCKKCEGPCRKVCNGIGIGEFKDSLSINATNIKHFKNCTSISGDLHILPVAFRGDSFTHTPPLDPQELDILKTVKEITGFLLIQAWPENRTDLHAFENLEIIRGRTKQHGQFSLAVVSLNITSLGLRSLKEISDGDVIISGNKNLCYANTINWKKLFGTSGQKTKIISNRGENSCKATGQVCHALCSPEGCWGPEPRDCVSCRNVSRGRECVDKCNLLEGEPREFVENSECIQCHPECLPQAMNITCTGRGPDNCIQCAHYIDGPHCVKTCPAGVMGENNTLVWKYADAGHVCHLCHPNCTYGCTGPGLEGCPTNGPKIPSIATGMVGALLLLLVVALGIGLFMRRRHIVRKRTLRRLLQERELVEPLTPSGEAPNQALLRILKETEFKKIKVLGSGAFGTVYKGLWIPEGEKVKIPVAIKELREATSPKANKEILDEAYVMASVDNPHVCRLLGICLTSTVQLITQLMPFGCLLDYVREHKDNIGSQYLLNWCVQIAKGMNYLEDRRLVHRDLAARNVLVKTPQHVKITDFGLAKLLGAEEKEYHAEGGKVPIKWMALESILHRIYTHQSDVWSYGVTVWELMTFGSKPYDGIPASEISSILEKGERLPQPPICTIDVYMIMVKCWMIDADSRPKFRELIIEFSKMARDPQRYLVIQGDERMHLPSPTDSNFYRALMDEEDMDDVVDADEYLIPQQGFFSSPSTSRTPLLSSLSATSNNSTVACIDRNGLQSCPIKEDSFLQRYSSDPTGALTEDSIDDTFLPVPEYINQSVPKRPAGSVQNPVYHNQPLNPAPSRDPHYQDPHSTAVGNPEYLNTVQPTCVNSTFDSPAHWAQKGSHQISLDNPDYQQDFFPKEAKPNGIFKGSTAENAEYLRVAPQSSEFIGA
Description: (§1) Extracts were made by lysing the monolayers in 0.2 mL of boiling Laemlli buffer (2% sodium dodecyl sulfate, 5% beta-mercaptoethanol, 10% glycerol and 50 mM tris[hydroxymethyl]aminomethane (Tris), pH 6.8), and the lysates were heated to 100° C. for 5 minutes. Proteins in the lysate were separated by polyacrylamide gel electrophoresis and electrophoretically transferred to nitrocellulose. The membrane was washed once in 10 mM Tris, pH 7.2, 150 mM NaCl, 0.01% Azide (TNA), and blocked overnight in TNA containing 5% bovine serum albumin and 1% ovalbumin. The membrane was blotted for 2 hours with antiphosphotyrosine antibody (UBI, 1 μg/mL in blocking buffer) and then washed twice in TNA, once in TNA containing 0.05% Tween-20 detergent and 0.05% nonidet P-40 detergent and twice in TNA. […] Band intensities were determined with a Molecular Dynamics laser densitometer.
Duplicate sets of cells were treated with a range of concentrations of the designated compound to be tested as an inhibitor for 15 minutes. The cells were then stimulated with 100 ng/mL of EGF for 5 minutes and extracts made as described under the Western Blotting Procedure.

[3] = target: T1, EGF receptor autophosphorylation in A431 cells; assay: Irreversibility test: recovery of EGF receptor autophosphorylation after washout; assay type: cell-based; conditions: for remaining activity at 2 µM: A-431, A431 cells treated 2 hours with 2 μM, read-out: % of Control Autophosphorylation
Description: as §1
Duplicate sets of cells were treated with 2 μM of designated compound to be tested as an irreversible inhibitor for either 1 or 2 hours. One set of cells was then stimulated with 100 ng/mL of EGF for 5 minutes and extracts made as described under the western blotting procedure. The other set of cells were washed free of the compound with warmed serum-free media, incubated for 2 hours, washed again, incubated another 2 hours, washed again, and then incubated a further 4 hours. This set of cells was then stimulated with EGF and extracts made similar to the first set of cells.

c-src tyrosine kinase = c-src tyrosine kinase (UniProt P00523); assay: Tyrosine kinase assay, c-src; assay type: biochemical
[4] = target: T2, insulin receptor intracellular kinase domain (Homo sapiens, UniProt P06213); assay: Tyrosine kinase assay, insulin receptor; assay type: biochemical
T2 construct: Assays using intracellular kinase domains of PDGF, FGF, and insulin receptors
T2 sequence (P06213 1023-1298 limits assumed): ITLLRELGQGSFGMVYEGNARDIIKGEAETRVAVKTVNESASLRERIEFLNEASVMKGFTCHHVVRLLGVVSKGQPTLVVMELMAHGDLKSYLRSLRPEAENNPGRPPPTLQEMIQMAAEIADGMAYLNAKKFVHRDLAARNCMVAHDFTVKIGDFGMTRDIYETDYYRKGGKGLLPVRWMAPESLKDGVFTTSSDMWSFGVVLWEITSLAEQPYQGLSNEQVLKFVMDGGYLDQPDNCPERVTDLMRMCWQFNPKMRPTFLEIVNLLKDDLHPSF

[5] = target: T3, FGF receptor intracellular kinase domain (FGF1) (Homo sapiens, UniProt P11362); assay: Tyrosine kinase assay, FGF receptor; assay type: biochemical
T3 construct: Assays using intracellular kinase domains of PDGF, FGF, and insulin receptors
T3 sequence (P11362 478-767 limits assumed): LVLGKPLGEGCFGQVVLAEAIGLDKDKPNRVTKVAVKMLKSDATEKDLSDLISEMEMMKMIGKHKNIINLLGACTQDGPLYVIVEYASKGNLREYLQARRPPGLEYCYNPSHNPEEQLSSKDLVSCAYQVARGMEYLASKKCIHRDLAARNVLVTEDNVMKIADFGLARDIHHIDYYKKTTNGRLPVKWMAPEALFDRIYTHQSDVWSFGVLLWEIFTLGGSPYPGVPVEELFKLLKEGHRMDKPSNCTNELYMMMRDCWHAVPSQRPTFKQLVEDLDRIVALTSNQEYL

[6] = test system: A431 human epidermoid carcinoma cells; assay: Growth inhibition assay in A431 cells; assay type: cell-based; conditions: A-431, 72 hours, cell count, read-out: IC50, inhibition of proliferation in A431 cells
Description: A431 human epidermoid carcinoma cells were obtained from the American Type Culture Collection, Rockville, Md. and maintained as monolayers in dMEM (Dulbecco's modified eagle medium)/F12, 50:50 (Gibco/BRL) containing 10% fetal bovine serum. […] The plates were incubated for 72 hours at 37° C. in a humidified atmosphere containing 5% CO2 in air. Cell growth was determined by cell count with a Coulter Model AM electronic cell counter (Coulter Electronics, Inc., Hialeah, Fla.).

[7] = test system: NIH 3T3 fibroblast transfected with the h-EGF receptor; assay: EGFR tumor xenograft in nude mice
Description: Female nude mice (NCr nu/nu, Taconic Farms) 18-20 g were implanted SC with tumor fragments (approximately 30 mg) in the region of the right axilla on Day 0. […] The vehicle was 6% dimethyl acetamide in 50 mM lactate buffer, pH 4.0Tumor volumes were recorded three times per week by measuring the length and width of the individual tumors and calculating the mass in milligrams according to the formula (a×b^2)/2, where a and b are the length and width of the tumor. Percent T/C (treated/control) was calculated based on the ratio of the median tumor volume of the treated tumors compared with the median tumor volume of the control tumors on specified measurement days.

EGF receptor tyrosine kinase, sequence (P00533 25-1210): as the sequence (P00533 25-1210) above

## C=CC(=O)Nc1ccc2c(Nc3cccc(Br)c3)ncnc2c1 [Example 3, N-[4-(3-Bromo-phenylamino)-quinazolin-7-yl]acrylamide]
[1]; Table 4
  specificity for the EGF receptor tyrosine kinase as opposed to other tyrosine kinase enzymes: very high specificity
[1]; Table 4, read-out: EGFR IC50
  IC50: 0.36 nM
[1]; isolated EGFR kinase, read-out: EGFR Tyrosine Kinase IC50
  IC50: 0.36 nM
[2]
  IC50: 14 nM
[3]; A431 cells, 2 μM inhibitor, EGFR autophosphorylation
  % Control After 2-Hour Incubation: 1%
[3]; A431 cells, 2 μM inhibitor, washed, 8 hours drug-free
  % Control After 8 Hours in Drug-Free Media Incubation: 13%
[3]; A431 cells, 2 μM, drug-free media (Table 3)
  time required for return of 50% of the activity: 21 h
[3]; 0 hours in drug-free media
  remaining activity at 2 µM: 0%
[3]; 4 hours in drug-free media
  remaining activity at 2 µM: 12%
[3]; 8 hours in drug-free media
  remaining activity at 2 µM: 23%
[3]; 23 hours in drug-free media
  remaining activity at 2 µM: 54%
[3]; A-431, A431 cells, 2 μM, end of 8 hours washoff, read-out: inhibition of the enzyme (kinase activity) after washoff
  inhibition at 2 µM: 89%
c-src tyrosine kinase
  IC50: > 2500 nM
[4]
  IC50: > 50000 nM
[5]
  IC50: > 50000 nM
[6]
  IC50: 300 ± 90 nM
[7]; 3 mg/kg/injection, Day 7
  % T/C: 115%
[7]; 3 mg/kg/injection, Day 10
  % T/C: 138%
[7]; 3 mg/kg/injection, Day 12
  % T/C: 113%
[7]; 30 mg/kg/injection, Day 7
  % T/C: 48%
[7]; 30 mg/kg/injection, Day 10
  % T/C: 66%
[7]; 30 mg/kg/injection, Day 12
  % T/C: 53%
[7]; 100 mg/kg/injection, Day 7
  % T/C: 57%
[7]; 100 mg/kg/injection, Day 10
  % T/C: 70%
[7]; 100 mg/kg/injection, Day 12
  % T/C: 57%
[7]; 10 or 3 mg/kg/injection IP every 12 hours Days 3-7
  activity against tumor growth: No activity
[7]; EGFR tumor, IP bid Days 1 through 13, 75 mg/kg
  growth delay: 5 days
[7]; EGFR tumor, IP bid Days 1 through 13, 300 mg/kg
  activity: no activity
[7]; EGFR tumor, IP bid Days 1 through 13, 190 and 120 mg/kg
  growth delay: 1 days
[7]; EGFR tumor, IP bid Days 3 through 7, 30 mg/kg
  growth delay: 2.5 days
[7]; EGFR tumor, IP bid Days 3 through 7, 100 mg/kg
  growth delay: 4 days
[7]; any dose level, IP every 12 hours Days 3-7
  weight loss, lethality, or clinical signs of toxicity: No weight loss, lethality, or clinical signs of toxicity
